Test results reported in patent US5306808A, “Peptide derivatives having vasodilating activity” (Takeda Chemical Industries, Ltd., priority 1991, dated 1994).
Where a SMILES comes first, the peptide text is derived from it. Bridges are numbered along the chain shown (N, C = ends). Where no end group is shown, it is not given here.

Assays:
porcine coronary artery = format: cell-based; details: for Constrictor activity (Relative potency): ET-1 = 100; for Maximum Constriction (% 60 mM KCl): normalized to constriction response to 60 mM KCl
Method: Each of helical strips 2 mm×15 mm prepared from the coronary right ramus circumflexus from which the adventitial connective tissues and the endothelial cells were removed was set to each of 4 ml organ baths. Its tension was detected by a force displacement transducer UL-10GR (Minebea), and recorded by a polygraph (NEC Sanei). The organ baths were maintained at 37° C., and filled with a Krebs-Henseleit solution (composition:118 mM NaCl, 4.7 mM KCl, 2.5 mM CaCl2, 1.2 mM KH2 PO4, 25.0 mM NaHCO3, 1.2 mM MgSO4, 10.0 mM glucose) gassed with 95% O2 and 5% CO2.
A tension of 1.25 to 1.5 g was applied to each of the strips, followed by equilibration for 1.5 hours. 60 mM KCl was repeatedly applied thereto at intervals of 30 minutes until the constriction response became constant. After additional equilibration for 1.5 hours, a sample for assay was given. The constriction of the strips was normalized by the constriction response of the individual strips to 60 mM KCl and statistically processed.
(2) As to the antagonist property or the agonist property of the peptide derivatives of present invention to endothelin, the affinity for an endothelin receptor and the constrictor activity to porcine coronary smooth muscles (according to the method described in (1) described above) were assayed. The affinity for the receptor was assayed by the following method.

endothelin receptor = experiment: Assay of affinity for receptor (I125-ET-1 binding to porcine myocardial membrane fraction); details: ET-1 = 100
Method: A membrane fraction prepared from the porcine heart was diluted to 0.15 mg/ml by using a buffer solution [PBS (pH 7.4) containing 0.5 mM CaCl2, 1.0 mM MgCl2, 0.02% NaN3, 0.1% BSA (fraction V, Sigma), 0.1 mM PMSF and 0.1 μg/ml pepstatin (binding buffer)] for assay, and 100 μl of the resulting suspension of the membrane fraction was poured into each assay tube to use for assay. To this suspension of the membrane fraction were added 2 μl of an endothelin-1 solution labeled with 5 μM radioactive iodine. Further, 3 μl of a test peptide solution was added thereto, followed by maintenance at a temperature of 25° C. for 1 hour. Then, the resulting suspension was diluted with 900 μl of the buffer solution for assay cooled with ice, and thereafter separated into a supernatant and a precipitate by centrifugation at 12,000×g for 10 minutes. Cell membranes and an endothelin receptor embedded therein were contained in the precipitate, and radioactive iodine-labeled endothelin combined with the receptor was also recovered in the precipitate. Accordingly, the amount of radioactive iodine-labeled endothelin combined with the endothelin receptor was determined by measuring the amount of radioactive iodine contained in the precipitate with a gamma-ray counter. Compounds in which the affinity for the endothelin receptor is high and the maximum constriction is not high are antagonists. Contrary to this, compounds in which the affinity for the endothelin receptor is high and the maximum constriction is high are agonists.

Compound	Receptor binding activity (Relative potency) (endothelin receptor)	Constrictor activity (Relative potency) (porcine coronary artery)	Maximum Constriction (% 60 mM KCl) (porcine coronary artery)
CC[C@H](C)[C@H](NC(=O)[C@@H](NC(=O)[C@H](CC(C)C)NC(=O)[C@H](Cc1c[nH]cn1)NC(=O)[C@@H]1CSSC[C@H](N)C(=O)N[C@@H](CO)C(=O)N[C@H]2CSSC[C@H](NC(=O)[C@H](CCC(=O)O)NC(=O)[C@H](CCCCN)NC(=O)[C@H](CC(=O)O)NC(=O)[C@H](CCSC)NC(=O)[C@H](CC(C)C)NC(=O)[C@H](CO)NC(=O)[C@H](CO)NC2=O)C(=O)N[C@@H](C(C)C)C(=O)N[C@@H](Cc2ccc(O)cc2)C(=O)N[C@@H](Cc2ccccc2)C(=O)N1)[C@@H](C)O)C(=O)N[C@H](C(=O)N[C@@H](Cc1c[nH]c2ccccc12)C(=O)O)[C@@H](C)CC [Example 51, [Thr^18]-ET-1] (H-CSCSSLMDKECVYFCHLTIIW-OH; disulfide 1-15, 3-11)	100	26	76
CC[C@H](C)[C@H](NC(=O)[C@H](CC(=O)O)NC(=O)[C@H](CC(C)C)NC(=O)[C@H](Cc1c[nH]cn1)NC(=O)[C@@H]1CSSC[C@H](N)C(=O)N[C@@H](CO)C(=O)N[C@@H](CC(C)C)C(=O)N[C@@H](CO)C(=O)N[C@@H](CO)C(=O)N[C@@H](CC(C)C)C(=O)N[C@@H](CCSC)C(=O)N[C@@H](CC(=O)O)C(=O)N[C@@H](CCCCN)C(=O)N[C@@H](CCC(=O)O)C(=O)N[C@@H](C)C(=O)N[C@@H](C(C)C)C(=O)N[C@@H](Cc2ccc(O)cc2)C(=O)N[C@@H](Cc2ccccc2)C(=O)N1)C(=O)N[C@H](C(=O)N[C@@H](Cc1c[nH]c2ccccc12)C(=O)O)[C@@H](C)CC [Example 52, [Leu^3, Ala^11]-ET-1] (H-CSLSSLMDKEAVYFCHLDIIW-OH; disulfide 1-15)	0.35	< 0.1	6
[Asn^18 ]-ET-1 (CSCSSLMDKECVYFCHLNIIW; ends and bridges not checked; cysteine pairing not given here; UniProt P05305 53-73, looked up, variant D18N) [Example 35]	9.1	< 0.1	43

The next lines start with results.

Receptor binding activity (Relative potency) (endothelin receptor)	Compound	Constrictor activity (Relative potency) (porcine coronary artery)	Maximum Constriction (% 60 mM KCl) (porcine coronary artery)
0.27	[Trp^3,11 ]-ET-1 (CSWSSLMDKEWVYFCHLDIIW; ends and bridges not checked; cysteine pairing not given here; UniProt P05305 53-73, looked up, variant C3W C11W) [Example 4]	< 0.1	10
4.5	[Val^3,Ala^11 ]-ET-1 (CSVSSLMDKEAVYFCHLDIIW; ends and bridges not checked; cysteine pairing not given here; UniProt P05305 53-73, looked up, variant C3V C11A) [Example 41]	73	130
